How the values were obtained:
[1] = molecular target: T1, human B2 bradykinin receptors (Homo sapiens, UniProt P30411); experiment: Bradykinin B2 (BK2) Receptor Binding Assay; details: membranes of CHO-K1 cells transfected with human B2 bradykinin receptors; ~0.25 nM [3H]NPC17731; 60 min at 25°C
T1 construct: purchased Receptor Biology, Inc. (Baltimore, MD); host or cells: CHO-K1 cells transfected with the human B2 receptor (membranes)
T1 sequence (P30411 1-391): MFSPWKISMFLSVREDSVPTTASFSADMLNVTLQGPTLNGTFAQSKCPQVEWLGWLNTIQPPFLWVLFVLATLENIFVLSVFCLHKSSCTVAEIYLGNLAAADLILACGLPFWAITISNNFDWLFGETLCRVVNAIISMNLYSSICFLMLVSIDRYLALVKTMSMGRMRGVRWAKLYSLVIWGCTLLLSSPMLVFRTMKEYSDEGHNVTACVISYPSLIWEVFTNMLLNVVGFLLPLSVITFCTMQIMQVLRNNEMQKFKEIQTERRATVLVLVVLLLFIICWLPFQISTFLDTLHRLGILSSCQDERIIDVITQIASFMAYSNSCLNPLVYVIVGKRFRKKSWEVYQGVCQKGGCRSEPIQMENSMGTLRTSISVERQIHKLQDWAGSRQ
Method: Cell membranes of CHO-K1 cells transfected with human B2 bradykinin receptors (CH)-hB2) were purchased from Receptor Biology, Inc. (Baltimore,MD).
Samples were harvested on a Brandel Cell Harvester on to Wallac filtermat B sheets (96 sample format), and washed three times with 2 mL cold HEPES-buffer (10 mM, pH 7.5), and dried in a microwave oven.
The data were used to calculate either the % inhibition compared to control binding (when only a single concentration of test compound was evaluated) or a Ki value (when a range of concentrations were tested). Background was subtracted from mean cpm values and % inhibition was calculated as: [(total dpm-test compound dpm)/(total dpm-nonspecific dpm)]x100. Kd and Ki values were calculated using GraphPad PRISM data analysis program.

[2] = Graded Abdominal Irritant Test (GrAIT); assay type: in vivo; details: for % Inhibition: 30 minutes before kaolin (100 mg/kg intraperitoneally), responses counted for 15 minutes, dose not given; for ED50: log dose regression analysis
Method: The Graded Abdominal Irritant Test (GrAIT) is a modification of the methods described by Koster et al. (Koster R., Anderson M and DeBeer E. J. Fed. Proc. 1959, 18, 412). Prior to the test (30 minutes for oral or subcutaneous administration), each animal was administered a known analgesic, a test compound, or vehicle (0.05N HCl) by one of two routes (oral or subcutaneous).
Kaolin (100 mg/kg) was injected intraperitoneally (using a standard 23G needle) at a volume of 10mL/kg of body weight. Following the administration of the chemical agent, the animals were placed in glass bell jars (approximately 15cm in diameter with wood chips on the bottom). […] A contraction of the abdominal musculature and an elongation of the body, which extends through to the hindlimbs, characterize this response. The responses were counted during the 15-minute time period after the injection of the kaolin. A mechanical counter or a personal computer was used to collect the number of counts per animal, and animals were observed no more than 5 at a time.
The mean number of counts (±SEM) for a group of animals receiving a known analgesic or test compound was compared to the mean for the group of animals which received only vehicle pretreatment (Control group). For each dose, % inhibition of the response was calculated. For each test compound, the EDso value was calculated using a log dose regression analysis program (PharmTools software).

CHO-hB2 cell membranes = molecular target: T2, CHO-hB2 cell membranes (Homo sapiens, UniProt P30411); experiment: [35S]GTPγS Binding Assay in CHO-hB2 Cell Membranes; assay type: biochemical; details: for Functional Activity (% Basal): number in parentheses, bradykinin-stimulated [35S]GTPγS binding, test concentration not given; for Functional Activity: word part of the cell, effect on bradykinin-stimulated [35S]GTPγS binding
T2 construct: purchased Receptor Biology, Inc. (Baltimore, MD); host or cells: CHO-hB2 cells (membranes)
T2 sequence (P30411 1-391): T1 sequence (P30411 1-391)
Method: CHO-hB2 cell membranes were purchased from Receptor Biology, Inc. (Baltimore,MD). 10 mg/mL of membrane protein was suspended in 10 mM TRIS-HC pH 7.2, 2 mM EDTA, 10% sucrose.
Membranes were added into 15 mL ice cold binding assay buffer. The assay buffer contained 50 mM HEPES, pH 7.6, 5 mM MgCl2, 100 mM NaCl, 1 mM DTT and 1 mM EDTA. The membrane suspension was homogenized twice with a Polytron and centrifuged at 3000 rpm for 10 min. The supernatant was then centrifuged at 18,000 rpm for 20 min. The pellet was saved in a tube and resuspended.
The pellet membranes (40 µg/mL) were preincubated with SPA (scintillation proximity assay) beads (20 mg/mL) at 25C° for 45 min in the assay buffer. The SPA beads (5 mg/mL) coupled with membranes (10 µg/mL) were then incubated with 0.5 nM [^35S]GTPγS in the same HEPES buffer containing 50 µM GDP in total volume of 200 µL. Bradykinin was used to stimulate [^35S]GTPγS binding. Varying concentrations of drugs were incubated with bradykinin to inhibit bradykinin-stimulated [^35S]GTPγS binding. The basal binding was tested in the absence of bradykinin and no specific binding was tested in the present 10 µM unlabeled GTPγS. The radioactivity was quantified on a Packard Top Count, and calculated. % of Basal = (stimulated binding-non specific binding)/(basal binding-non specific binding) × 100. [formula]

SMILES	Ki [1] [nM]	Functional Activity (% Basal) (CHO-hB2 cell membranes)	Functional Activity (CHO-hB2 cell membranes)	% Inhibition ([2]; po)	ED50 ([2]; po) [µmol/kg]	% Inhibition ([2]; sc) [%]
Cc1ccc2cccc(OCc3c(Cl)ccc(N(C)C(=O)CCc4ccc(C(=O)c5ccc(Cl)nc5)n4C)c3Cl)c2n1 [Compound 89]	57	51	Antagonist	98po %	22.5	–
Cc1ccc2cccc(OCc3c(Cl)ccc(N(C)C(=O)Cc4ccc(C(=O)c5ccc(C#N)cc5)n4CC(C)C)c3Cl)c2n1 [Compound 12]	54	1	No effect	–	–	–
Cc1ccc2cccc(OCc3c(Cl)ccc(N(C)C(=O)Cc4ccc(C(=O)c5ccc([N+](=O)[O-])cc5)n4C)c3Cl)c2n1 [Compound 63]	178	33	Antagonist	–	–	–
Cc1ccc2cccc(OCc3c(Cl)ccc(N(C)C(=O)Cc4ccc(C(=O)c5ccc(C#N)cc5)n4CC4CC4)c3Cl)c2n1 [Compound 11, 2-[5-(4-Cyano-benzoyl)-1-cyclopropylmethyl-1H-pyrrol-2-yl]-N-[2,4-dichloro-3-(2-methyl-quinolin-8-yloxymethyl)-phenyl]-N-methyl-acetamide]	48	1	No effect	–	–	–
CCCn1c(CC(=O)N(C)c2ccc(Cl)c(COc3cccc4ccc(C)nc34)c2Cl)ccc1C(=O)c1ccc(C#N)cc1 [Compound 9]	27	1	No effect	–	–	–
Cc1ccc2cccc(OCc3c(Cl)ccc(N(C)C(=O)Cc4ccc(C(=O)c5cccs5)n4C)c3Cl)c2n1 [Compound 61]	393	12	Weak antagonist	–	–	–
Cc1ccc2cccc(OCc3c(Cl)ccc(N(C)C(=O)Cc4ccc(C(=O)c5ccc(C#N)nc5)n4C)c3Cl)c2n1 [Compound 71]	74	79	Antagonist	–	–	–
Cc1ccc2cccc(OCc3c(Cl)ccc(N(C)C(=O)Cc4ccc(C(=O)c5ccncc5)n4C)c3Cl)c2n1 [Compound 60, N-[2,4-Dichloro-3-(2-methyl-quinolin-8-yloxymethyl)-phenyl]-N-methyl-2-[1-methyl-5-(pyridine-4-carbonyl)-1 H-pyrrol-2-yl]-acetamide]	400	–	–	44po %	–	–
CC(=O)Nc1ccc(C=CC(=O)NC[C@H]2CCCN2c2ccc(C)c(COc3cccc4ccc(C)nc34)c2C)cn1 [Compound 112, 3-(6-Acetytamino-pyridin-3-yl)-N-{1-[2,4-dimethyl-3-(2-methyl-quinolin-8-yloxymethyl)-phenyl]-pyrrolidin-2-(R)ylmethyl}-acrylamide.]	54	59	Antagonist	–	–	–
COC(=O)c1ccc(C(=O)c2ccc(CC(=O)N(C)c3ccc(Cl)c(COc4cccc5ccc(C)nc45)c3Cl)n2C)cc1 [Compound 64]	161	45	Antagonist	–	–	–
COc1ccc(C(=O)c2ccc(CC(=O)N(C)c3ccc(Cl)c(COc4cccc5ccc(C)nc45)c3Cl)n2C)cc1 [Compound 68]	189	4	Weak antagonist	–	–	–
Cc1ccc2cccc(OCc3c(Cl)ccc(N(C)C(=O)Cc4ccc(C(=O)c5ccccc5[N+](=O)[O-])n4C)c3Cl)c2n1 [Compound 66]	169	35	Antagonist	–	–	–
CCn1c(CC(=O)N(C)c2ccc(C)c(COc3cccc4ccc(C)nc34)c2C)ccc1C(=O)c1ccc(C#N)cc1 [Compound 7]	48	–	–	26%	–	42
Cc1ccc2cccc(OCc3c(Cl)ccc(N(C)C(=O)Cc4ccc(C(=O)CN5CCC(Cc6ccccc6)CC5)n4C)c3Cl)c2n1 [Compound 59]	291	1	No effect	–	–	–
CCN(C(=O)Cc1ccc(C(=O)c2ccc(C#N)cc2)n1C)c1ccc(Cl)c(COc2cccc3ccc(C)nc23)c1Cl [Compound 18]	55	1	No effect	–	–	–

The next lines start with results.

Ki [1] [nM]	Functional Activity (% Basal) (CHO-hB2 cell membranes)	Functional Activity (CHO-hB2 cell membranes)	SMILES	% Inhibition ([2]; po)	ED50 ([2]; po) [µmol/kg]	% Inhibition ([2]; sc) [%]
69	100	Antagonist	Cc1ccc2cccc(OCc3c(C)ccc(N(C)C(=O)Cc4ccc(C(=O)c5ccc(C#N)cc5)n4C)c3C)c2n1 [Compound 79, 2-[5-(4-Cyano-benzoyl)-1-methyl-1H-pyrrol-2-yl]-N-[2,4-dimethyl-3-(2-methyl-quinolin-8-yloxymethyl)-phenyl]-N-methyl-acetamide]	68 po %	61.3	–
46	50	Antagonist	Cc1ccc2cccc(OCc3c(C)ccc(N(C)C(=O)CCc4ccc(C(=O)c5ccc(C#N)cc5)n4C)c3C)c2n1 [Compound 90]	45%	–	100
64	78	Antagonist	Cc1ccc2cccc(OCc3c(Cl)ccc(N(C)C(=O)Cc4ccc(C(=O)c5ccc([S+](C)[O-])cc5)n4C)c3Cl)c2n1 (centres unmarked) [Compound 73, N-[2,4-Dichloro-3-(2-methyl-quinolin-8-yloxymethyl)-phenyl]-2-[5-(4-methanesuifinyl-benzoyl)-1-methyl-1H-pyrrol-2-yl]-N-methyl-acetamide]	–	–	–
168	45	Antagonist	Cc1ccc2cccc(OCc3c(Cl)ccc(N(C)C(=O)CCc4ccc(C(=O)c5ccncc5)n4C)c3Cl)c2n1 [Compound 83]	–	–	–
85	74	Antagonist	CC(=O)Nc1cccc(C(=O)c2ccc(CC(=O)N(C)c3ccc(Cl)c(COc4cccc5ccc(C)nc45)c3Cl)n2C)c1 [Compound 72]	–	–	–
141	12	Weak antagonist	Cc1ccc2cccc(OCc3c(C)ccc(N(C)C(=O)CCc4ccc(C(=O)c5cccs5)n4C)c3C)c2n1 [Compound 80]	–	–	–
304	1	No effect	Cc1ccc2cccc(OCc3c(Cl)ccc(N(C)C(=O)CCc4ccc(C(=O)c5cccs5)n4C)c3Cl)c2n1 [Compound 81]	–	–	–

Reference: patent EP1914236A1 (Ortho-McNeil Pharmaceutical, Inc., priority 2002, dated 2003)
